# Results: PubChem BioAssay (NCI)
#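 Assay format: 96-well plates, 48-hour exposure. Abbreviation: GI50, concentration required for 50% inhibition of growth. At the TGI there is no net growth.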
# What was measured:
# Test in all cases: growth of human tumour cells (NCI), 48 h
# [1] = system: SK-OV-3 ovarian
# [2] = system: OVCAR-3 ovarian
# [3] = system: SK-MEL-5 melanoma
# [4] = system: PC-3 prostate
# [5] = system: TK-10 renal
# [6] = system: T-47D breast
# [7] = system: SF-268 CNS
# [8] = system: SW-620 colon
# [9] = system: COLO 205 colon
# [10] = system: SN12C renal
# [11] = system: BT-549 breast
# [12] = system: U251 CNS
# [13] = system: NCI/ADR-RES ovarian
# [14] = system: ACHN renal
# [15] = system: 786-0 renal
# [16] = system: HT29 colon
# [17] = system: MALME-3M melanoma
# [18] = system: K-562 leukemia
# [19] = system: OVCAR-4 ovarian
# [20] = system: M14 melanoma
# [21] = system: MOLT-4 leukemia
# [22] = system: KM12 colon
# [23] = system: HOP-62 NSCLC
# [24] = system: MDA-MB-435
# [25] = system: HCT-15 colon
# [26] = system: SF-539 CNS
# [27] = system: HS 578T breast
# [28] = system: A498 renal
# [29] = system: CCRF-CEM leukemia
# [30] = system: SNB-75 CNS
# [31] = system: CAKI-1 renal
# [32] = system: UO-31 renal
# [33] = system: SK-MEL-28 melanoma
# [34] = system: RPMI-8226 leukemia
# [35] = system: DU-145 prostate
# [36] = system: A549 NSCLC
# [37] = system: UACC-62 melanoma
# [38] = system: HCT-116 colon
# [39] = system: NCI-H23 lung
# [40] = system: HL-60(TB) leukemia
# [41] = system: EKVX NSCLC
# [42] = system: MDA-MB-231 breast
# [43] = system: NCI-H226 lung
# [44] = system: SNB-19 CNS
# [45] = system: NCI-H460 lung
# [46] = system: OVCAR-5 ovarian
# [47] = system: UACC-257 melanoma
# [48] = system: OVCAR-8 ovarian
# [49] = system: RXF 393 renal
# [50] = system: SK-MEL-2 melanoma
# [51] = system: IGROV1 ovarian
# [52] = system: HOP-92 NSCLC
# [53] = system: HCC-2998 colon
# [54] = system: SR leukemia
# [55] = system: LOX IMVI melanoma
# [56] = system: SF-295 CNS
# [57] = system: NCI-H522 lung
smiles,measurement,setting,value
O=C(NCCCCCCNC(=O)OCc1ccc2c(Cl)cc(Cl)c(O)c2n1)OCc1ccc2c(Cl)cc(Cl)c(O)c2n1,GI50,[1],5.5 µM
same,TGI,[1],17.9 µM
same,GI50,[2],327 nM
same,TGI,[2],1240 nM
same,GI50,[3],1540 nM
same,TGI,[3],2880 nM
same,GI50,[4],815 nM
same,TGI,[4],2.42 µM
same,GI50,[5],1180 nM
same,TGI,[5],2.45 µM
same,GI50,[6],1750 nM
same,TGI,[6],5.67 µM
same,GI50,[7],1330 nM
same,TGI,[7],2780 nM
same,GI50,[8],303 nM
same,TGI,[8],984 nM
same,GI50,[9],589 nM
same,TGI,[9],2190 nM
same,GI50,[10],957 nM
same,TGI,[10],2250 nM
same,GI50,[11],748 nM
same,TGI,[11],2.17 µM
same,GI50,[12],1440 nM
same,TGI,[12],2920 nM
same,GI50,[13],518 nM
same,TGI,[13],6.58 µM
same,GI50,[14],353 nM
same,TGI,[14],1320 nM
same,GI50,[15],1280 nM
same,TGI,[15],2670 nM
same,GI50,[16],565 nM
same,TGI,[16],2230 nM
same,GI50,[17],1420 nM
same,TGI,[17],2770 nM
same,GI50,[18],381 nM
same,GI50,[19],707 nM
same,TGI,[19],2040 nM
same,GI50,[20],893 nM
same,TGI,[20],2320 nM
same,GI50,[21],688 nM
same,TGI,[21],5.55 µM
same,GI50,[22],1340 nM
same,TGI,[22],2950 nM
same,GI50,[23],1700 nM
same,TGI,[23],4.22 µM
same,GI50,[24],443 nM
same,TGI,[24],1710 nM
same,GI50,[25],317 nM
same,TGI,[25],1020 nM
same,GI50,[26],468 nM
same,TGI,[26],1630 nM
same,GI50,[27],1460 nM
same,TGI,[27],5.68 µM
same,GI50,[28],1250 nM
same,TGI,[28],2.55 µM
same,GI50,[29],311 nM
same,GI50,[30],567 nM
same,TGI,[30],2080 nM
same,GI50,[31],412 nM
same,TGI,[31],1.69 µM
same,GI50,[32],619 nM
same,TGI,[32],1950 nM
same,GI50,[33],1190 nM
same,TGI,[33],2420 nM
same,GI50,[34],311 nM
same,TGI,[34],1680 nM
same,GI50,[35],1030 nM
same,TGI,[35],2240 nM
same,GI50,[36],1550 nM
same,TGI,[36],3.62 µM
same,GI50,[37],1060 nM
same,TGI,[37],2280 nM
same,GI50,[38],209 nM
same,TGI,[38],693 nM
same,GI50,[39],1420 nM
same,TGI,[39],3.06 µM
same,GI50,[40],771 nM
same,TGI,[40],4.29 µM
same,GI50,[41],1510 nM
same,TGI,[41],3.08 µM
same,GI50,[42],1170 nM
same,TGI,[42],2.49 µM
same,GI50,[43],1070 nM
same,TGI,[43],2.54 µM
same,GI50,[44],1490 nM
same,TGI,[44],2910 nM
same,GI50,[45],1230 nM
same,TGI,[45],3.12 µM
same,GI50,[46],1500 nM
same,TGI,[46],3.01 µM
same,GI50,[47],1300 nM
same,TGI,[47],2.77 µM
same,GI50,[48],677 nM
same,TGI,[48],2620 nM
same,GI50,[49],478 nM
same,TGI,[49],1570 nM
same,GI50,[50],1450 nM
same,TGI,[50],2990 nM
same,GI50,[51],570 nM
same,TGI,[51],1780 nM
same,GI50,[52],515 nM
same,TGI,[52],2.17 µM
same,GI50,[53],1680 nM
same,TGI,[53],3.22 µM
same,GI50,[54],357 nM
same,GI50,[55],325 nM
same,TGI,[55],1100 nM
same,GI50,[56],2660 nM
same,TGI,[56],6.99 µM
same,GI50,[57],460 nM
same,TGI,[57],2100 nM
ClCCN(CCCl)c1ccc(CNCCCNCc2ccc(N(CCCl)CCCl)cc2)cc1,TGI,[4],26.5 µM
same,TGI,[5],5.25 µM
same,TGI,[8],> 100000 nM
same,TGI,[9],3290 nM
same,TGI,[11],9.85 µM
same,TGI,[13],> 100 µM
same,TGI,[20],> 100000 nM
same,TGI,[27],7.81 µM
same,TGI,[28],33.8 µM
same,TGI,[29],> 100 µM
same,TGI,[31],27.2 µM
same,TGI,[33],3180 nM
same,TGI,[34],> 100000 nM
same,TGI,[35],> 100000 nM
same,TGI,[36],> 100 µM
same,TGI,[38],> 100000 nM
same,TGI,[40],2.67 µM
same,TGI,[42],5.37 µM
same,TGI,[43],30.3 µM
same,TGI,[46],> 100 µM
same,TGI,[47],4.71 µM
same,TGI,[52],26.6 µM
same,TGI,[53],5.2 µM
same,TGI,[54],1290 nM
